Tested on: 521955-158-R2-J5-PDC complex spheroid growth, % test/control
Experiment: Anticancer human tumor 521955-158-R2-J5-PDC patient-derived pancreatic carcinoma cell line growth inhibition [Asc]
Settings: for IC50: curve of first compound; for viability, T/C: stronger effect = lower value
Procedure, shortened: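 Complex spheroids combining tumor cells with HUVEC endothelial cells and human MSCs, at 37 degrees C, 5% CO2; agents tested alone or combined, half-log dilutions from at or near clinical Cmax, or 10 microM if Cmax unknown.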

[1] = second compound 0.03 µM, first compound 0.0316 µM
[2] = second compound 0.03 µM, first compound 0.1 µM
[3] = second compound 0.0949 µM, first compound 0.0316 µM
[4] = second compound 0.0949 µM, first compound 0.1 µM
[5] = second compound 0.3 µM, first compound 0.0316 µM
[6] = second compound 0.3 µM, first compound 0.1 µM
[7] = second compound 0.949 µM, first compound 0.0316 µM
[8] = second compound 0.949 µM, first compound 0.1 µM
[9] = second compound 3 µM, first compound 0.0316 µM
[10] = second compound 3 µM, first compound 0.1 µM
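Further: spheroids exposed to agents for 7 days before readout.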
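Wherever viability, T/C is given: 100% = DMSO vehicle control viability.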

NC1CCC(NC2CC2c2ccccc2)CC1 (stereo not given) + CCN1C(C(=O)NC23CCC(C(=O)O)(CC2)CC3)C(c2cccc(Cl)c2F)C2(C(=O)Nc3cc(Cl)ccc32)C12CCCCC2
IC50 (second compound 0.03 µM): > 0.1 µM | IC50 (second compound 0.0949 µM): > 0.1 µM | IC50 (second compound 0.3 µM): > 0.1 µM | IC50 (second compound 0.949 µM): > 0.1 µM | IC50 (second compound 3 µM): > 0.1 µM | viability, T/C (second compound 0.03 µM, first compound 0.000316 µM): 59% | viability, T/C (second compound 0.03 µM, first compound 0.001 µM): 52.7% | viability, T/C (second compound 0.03 µM, first compound 0.00316 µM): 64.8% | viability, T/C (second compound 0.03 µM, first compound 0.01 µM): 59.2% | viability, T/C [1]: 57.4% | viability, T/C [2]: 46.1% | viability, T/C (second compound 0.0949 µM, first compound 0.000316 µM): 55.9% | viability, T/C (second compound 0.0949 µM, first compound 0.001 µM): 55.1% | viability, T/C (second compound 0.0949 µM, first compound 0.00316 µM): 69.4% | viability, T/C (second compound 0.0949 µM, first compound 0.01 µM): 59.3% | viability, T/C [3]: 65% | viability, T/C [4]: 65.8% | viability, T/C (second compound 0.3 µM, first compound 0.000316 µM): 58.5% | viability, T/C (second compound 0.3 µM, first compound 0.001 µM): 44.1% | viability, T/C (second compound 0.3 µM, first compound 0.00316 µM): 58.8% | viability, T/C (second compound 0.3 µM, first compound 0.01 µM): 65.8% | viability, T/C [5]: 48.8% | viability, T/C [6]: 71.4% | viability, T/C (second compound 0.949 µM, first compound 0.000316 µM): 58.5% | viability, T/C (second compound 0.949 µM, first compound 0.001 µM): 66.8% | viability, T/C (second compound 0.949 µM, first compound 0.00316 µM): 74% | viability, T/C (second compound 0.949 µM, first compound 0.01 µM): 67.5% | viability, T/C [7]: 62.5% | viability, T/C [8]: 77.4% | viability, T/C (second compound 3 µM, first compound 0.000316 µM): 84.7% | viability, T/C (second compound 3 µM, first compound 0.001 µM): 109% | viability, T/C (second compound 3 µM, first compound 0.00316 µM): 83.1% | viability, T/C (second compound 3 µM, first compound 0.01 µM): 113% | viability, T/C [9]: 92.8% | viability, T/C [10]: 91.7%

CCN1C(C(=O)NC23CCC(C(=O)O)(CC2)CC3)C(c2cccc(Cl)c2F)C2(C(=O)Nc3cc(Cl)ccc32)C12CCCCC2 (stereo not given) + CNC(C)C(=O)NC1CN(S(=O)(=O)c2cccc(S(=O)(=O)N3CCC4CCC(C(=O)NC(c5ccccc5)c5ccccc5)N4C(=O)C(NC(=O)C(C)NC)C3)c2)CCC2CCC(C(=O)NC(c3ccccc3)c3ccccc3)N2C1=O
IC50 (second compound 0.01 µM): > 3 µM | IC50 (second compound 0.0316 µM): > 3 µM | IC50 (second compound 0.1 µM): > 3 µM | IC50 (second compound 0.316 µM): > 3 µM | IC50 (second compound 1 µM): > 3 µM | viability, T/C (second compound 0.01 µM, first compound 0.00949 µM): 107% | viability, T/C (second compound 0.01 µM, first compound 0.03 µM): 112% | viability, T/C (second compound 0.01 µM, first compound 0.0949 µM): 90.5% | viability, T/C (second compound 0.01 µM, first compound 0.3 µM): 91.9% | viability, T/C (second compound 0.01 µM, first compound 0.949 µM): 112% | viability, T/C (second compound 0.01 µM, first compound 3 µM): 116% | viability, T/C (second compound 0.0316 µM, first compound 0.00949 µM): 119% | viability, T/C (second compound 0.0316 µM, first compound 0.03 µM): 114% | viability, T/C (second compound 0.0316 µM, first compound 0.0949 µM): 100% | viability, T/C (second compound 0.0316 µM, first compound 0.3 µM): 114% | viability, T/C (second compound 0.0316 µM, first compound 0.949 µM): 97.1% | viability, T/C (second compound 0.0316 µM, first compound 3 µM): 97% | viability, T/C (second compound 0.1 µM, first compound 0.00949 µM): 91.2% | viability, T/C (second compound 0.1 µM, first compound 0.03 µM): 116% | viability, T/C (second compound 0.1 µM, first compound 0.0949 µM): 97.2% | viability, T/C (second compound 0.1 µM, first compound 0.3 µM): 101% | viability, T/C (second compound 0.1 µM, first compound 0.949 µM): 114% | viability, T/C (second compound 0.1 µM, first compound 3 µM): 118% | viability, T/C (second compound 0.316 µM, first compound 0.00949 µM): 94.9% | viability, T/C (second compound 0.316 µM, first compound 0.03 µM): 106% | viability, T/C (second compound 0.316 µM, first compound 0.0949 µM): 106% | viability, T/C (second compound 0.316 µM, first compound 0.3 µM): 98.6% | viability, T/C (second compound 0.316 µM, first compound 0.949 µM): 96.1% | viability, T/C (second compound 0.316 µM, first compound 3 µM): 119% | viability, T/C (second compound 1 µM, first compound 0.00949 µM): 83.3% | viability, T/C (second compound 1 µM, first compound 0.03 µM): 108% | viability, T/C (second compound 1 µM, first compound 0.0949 µM): 115% | viability, T/C (second compound 1 µM, first compound 0.3 µM): 103% | viability, T/C (second compound 1 µM, first compound 0.949 µM): 105% | viability, T/C (second compound 1 µM, first compound 3 µM): 108%

C=C(F)C(=O)N1CCN(c2nc(OCC3CCCN3C)nc3c2CCN(c2cccc4cccc(Cl)c24)C3)CC1CC#N (stereo not given) + CCN1C(C(=O)NC23CCC(C(=O)O)(CC2)CC3)C(c2cccc(Cl)c2F)C2(C(=O)Nc3cc(Cl)ccc32)C12CCCCC2
IC50 (second compound 0.03 µM): 5.38 µM | IC50 (second compound 0.0949 µM): 5.58 µM | IC50 (second compound 0.3 µM): 6.04 µM | IC50 (second compound 0.949 µM): 6.7 µM | IC50 (second compound 3 µM): 6.81 µM | viability, T/C [1]: 95.2% | viability, T/C [2]: 95.1% | viability, T/C (second compound 0.03 µM, first compound 0.316 µM): 77.5% | viability, T/C (second compound 0.03 µM, first compound 1 µM): 85.2% | viability, T/C (second compound 0.03 µM, first compound 3.16 µM): 110% | viability, T/C (second compound 0.03 µM, first compound 10 µM): 0.26% | viability, T/C [3]: 98% | viability, T/C [4]: 103% | viability, T/C (second compound 0.0949 µM, first compound 0.316 µM): 71.4% | viability, T/C (second compound 0.0949 µM, first compound 1 µM): 91.5% | viability, T/C (second compound 0.0949 µM, first compound 3.16 µM): 128% | viability, T/C (second compound 0.0949 µM, first compound 10 µM): 0.27% | viability, T/C [5]: 110% | viability, T/C [6]: 98.2% | viability, T/C (second compound 0.3 µM, first compound 0.316 µM): 108% | viability, T/C (second compound 0.3 µM, first compound 1 µM): 113% | viability, T/C (second compound 0.3 µM, first compound 3.16 µM): 141% | viability, T/C (second compound 0.3 µM, first compound 10 µM): 0.27% | viability, T/C [7]: 130% | viability, T/C [8]: 95.8% | viability, T/C (second compound 0.949 µM, first compound 0.316 µM): 109% | viability, T/C (second compound 0.949 µM, first compound 1 µM): 112% | viability, T/C (second compound 0.949 µM, first compound 3.16 µM): 152% | viability, T/C (second compound 0.949 µM, first compound 10 µM): 12.7% | viability, T/C [9]: 120% | viability, T/C [10]: 154% | viability, T/C (second compound 3 µM, first compound 0.316 µM): 146% | viability, T/C (second compound 3 µM, first compound 1 µM): 137% | viability, T/C (second compound 3 µM, first compound 3.16 µM): 188% | viability, T/C (second compound 3 µM, first compound 10 µM): 0.35%

Reference: PubChem BioAssay AID1963430 (Molecular Pharmacology Branch, DTP, NCI, 2024)
